Test results from PubChem BioAssay AID256 (DTP/NCI, 2004).
Several values for one entry are separate records, joined by “and”; a condition that tells them apart may be missing. Equal values may be shown once. Inconclusive results and toxic doses are left out. How the source made its calls: active means survival T/C of 150% or more; inactive means T/C below 125% in these data. Non-standard residues stand in square brackets, D forms with d. Residues, ends and D or L forms follow the SMILES beside them. ξ: configuration not given here. *: point of attachment. Trt = c1ccc(C(c2ccccc2)(c2ccccc2)*)cc1; ξV = CC(C)C(N)C(=O)O; ClAc = O=C(CCl)*

Test system: CD2F1 mice, L1210 leukemia ip, survival T/C
Assay: NCI In Vivo Anticancer Drug Screen. Data for tumor model L1210 Leukemia (intraperitoneal) in CD2F1 (CDF1) mice
Conditions: higher = longer survival
How it was run: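 Vehicle-treated tumor-bearing mice served as controls (C) for compound-treated mice (T). Reported figure is T divided by C.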

[1] = endpoint: mean survival time, dose: 100.0 mg/kg/injection, schedule: Q01DX001 (ip), vehicle: saline with Tween-80
[2] = endpoint: mean survival time, dose: 200.0 mg/kg/injection, schedule: Q01DX001 (ip), vehicle: saline with Tween-80
[3] = endpoint: mean survival time, dose: 400.0 mg/kg/injection, schedule: Q01DX001 (ip), vehicle: saline with Tween-80
[4] = endpoint: mean survival time, dose: 50.0 mg/kg/injection, schedule: Q01DX009 (ip), vehicle: saline with Tween-80
[5] = endpoint: mean survival time, dose: 100.0 mg/kg/injection, schedule: Q01DX009 (ip), vehicle: saline with Tween-80
[6] = endpoint: mean survival time, dose: 200.0 mg/kg/injection, schedule: Q01DX009 (ip), vehicle: saline with Tween-80
[7] = endpoint: mean survival time, dose: 400.0 mg/kg/injection, schedule: Q01DX009 (ip), vehicle: saline with Tween-80
[8] = endpoint: mean survival time, dose: 100.0 mg/kg/injection, schedule: Q04DX003 (ip), vehicle: saline with Tween-80
[9] = endpoint: mean survival time, dose: 200.0 mg/kg/injection, schedule: Q04DX003 (ip), vehicle: saline with Tween-80
[10] = endpoint: mean survival time, dose: 400.0 mg/kg/injection, schedule: Q04DX003 (ip), vehicle: saline with Tween-80

Measured: T/C

Cc1c(N)nc([C@H](CC(N)=O)NC[C@H](N)C(N)=O)nc1C(=O)N[C@H](C(=O)N[C@H](C)[C@@H](O)CC(=O)N[C@H](C(=O)NC(O[C@@H]1O[C@@H](C)[C@@H](N)[C@@H](O)[C@H]1O)C(O)c1nc(-c2nc(C(=O)NCCCCN)cs2)cs1)[C@@H](C)O)[C@@H](O[C@@H]1O[C@@H](CO)[C@@H](O)[C@H](O)[C@@H]1O[C@H]1O[C@H](CO)[C@@H](O)[C@H](OC(N)=O)[C@@H]1O)c1c[nH]cn1 (stereo not given in full)
inactive: endpoint: median survival time, dose: 1.0 mg/kg/injection, schedule: Q01DX009 (ip), vehicle: saline 106 % of control | endpoint: median survival time, dose: 2.0 mg/kg/injection, schedule: Q01DX009 (ip), vehicle: saline 112 % of control | endpoint: median survival time, dose: 4.0 mg/kg/injection, schedule: Q01DX009 (ip), vehicle: saline 119 % of control | endpoint: median survival time, dose: 8.0 mg/kg/injection, schedule: Q01DX009 (ip), vehicle: saline 118 % of control | endpoint: median survival time, dose: 16.0 mg/kg/injection, schedule: Q01DX009 (ip), vehicle: saline 120 % of control | endpoint: median survival time, dose: 32.0 mg/kg/injection, schedule: Q01DX009 (ip), vehicle: saline 108 % of control

CN(C)C1C(CO)C(CO)C1(C)C (stereo not given)
inactive: endpoint: mean survival time, dose: 50.0 mg/kg/injection, schedule: Q01DX001 (ip), vehicle: saline with Tween-80 98 % of control | [1] 97 % of control | [2] 98 % of control | [3] 97 % of control

COC(=O)C(CC(C)C)NC(=O)C(N)CSC(c1ccccc1)(c1ccccc1)c1ccccc1 (stereo not given) (H-Cys(Trt)-Leu-OMe; configuration not given here)
inactive: endpoint: mean survival time, dose: 25.0 mg/kg/injection, schedule: Q01DX009 (ip), vehicle: saline 104 % of control | endpoint: mean survival time, dose: 50.0 mg/kg/injection, schedule: Q01DX009 (ip), vehicle: saline 110 % of control | endpoint: mean survival time, dose: 100.0 mg/kg/injection, schedule: Q01DX009 (ip), vehicle: saline 108 % of control

O=c1cc[nH]cc1[N+](=O)[O-]
inactive: [4] 101 % of control | [5] 101 % of control | endpoint: mean survival time, dose: 100.0 mg/kg/injection, schedule: Q04DX003 (ip), vehicle: saline sonified 97 % of control | [6] 100 % of control | endpoint: mean survival time, dose: 200.0 mg/kg/injection, schedule: Q04DX003 (ip), vehicle: saline sonified 95 % of control

F[B-](F)(F)F
inactive: endpoint: mean survival time, dose: 12.5 mg/kg/injection, schedule: Q01DX009 (ip), vehicle: gum acacia 94 % of control and 106 % of control | endpoint: mean survival time, dose: 25.0 mg/kg/injection, schedule: Q01DX009 (ip), vehicle: gum acacia 98 % of control | endpoint: mean survival time, dose: 50.0 mg/kg/injection, schedule: Q01DX009 (ip), vehicle: gum acacia 96 % of control and 106 % of control | endpoint: mean survival time, dose: 100.0 mg/kg/injection, schedule: Q01DX009 (ip), vehicle: gum acacia 95 % of control and 101 % of control | endpoint: mean survival time, dose: 200.0 mg/kg/injection, schedule: Q01DX009 (ip), vehicle: gum acacia 109 % of control | endpoint: mean survival time, dose: 400.0 mg/kg/injection, schedule: Q01DX009 (ip), vehicle: gum acacia 98 % of control

[CH3][Sn]([CH3])([Cl])[Cl]
inactive: endpoint: mean survival time, dose: 5.0 mg/kg/injection, schedule: Q01DX009 (ip), vehicle: saline 106 % of control | endpoint: mean survival time, dose: 10.0 mg/kg/injection, schedule: Q01DX009 (ip), vehicle: saline 98 % of control | endpoint: mean survival time, dose: 20.0 mg/kg/injection, schedule: Q01DX009 (ip), vehicle: saline 95 % of control

Cc1cccc[n+]1C
inactive: endpoint: mean survival time, dose: 12.5 mg/kg/injection, schedule: Q04DX003 (ip), vehicle: saline 102 % of control | endpoint: mean survival time, dose: 25.0 mg/kg/injection, schedule: Q04DX003 (ip), vehicle: saline 104 % of control | endpoint: mean survival time, dose: 50.0 mg/kg/injection, schedule: Q04DX003 (ip), vehicle: saline 100 % of control

CS(=O)(=O)OCCCN(CCCOS(C)(=O)=O)c1ccc(C=Nc2ccc(-c3csc(COc4ccc(Br)cc4)n3)cc2)cc1
inactive: [1] 94 % of control | [2] 89 % of control | [3] 88 % of control

CN1NC(c2ccc(Cl)cc2)C2CN(C3CCCCC3)C(=O)C21O (stereo not given)
inactive: [1] 100 % of control | [5] 96 % of control | [2] 96 % of control | [6] 90 % of control | [3] 94 % of control | [7] 88 % of control

Cc1ccc(OCCOc2ccc(C(=O)O)cc2)cc1
inactive: endpoint: mean survival time, dose: 7.5 mg/kg/injection, schedule: Q01DX009 (ip), vehicle: Klucel (hydroxypropylcellulose) (HPC) 100 % of control | endpoint: mean survival time, dose: 15.0 mg/kg/injection, schedule: Q01DX009 (ip), vehicle: Klucel (hydroxypropylcellulose) (HPC) 98 % of control | endpoint: mean survival time, dose: 30.0 mg/kg/injection, schedule: Q01DX009 (ip), vehicle: Klucel (hydroxypropylcellulose) (HPC) 96 % of control

C[n+]1cccc(C(=O)NCCc2c[nH]c3ccccc23)c1
inactive: endpoint: mean survival time, dose: 18.75 mg/kg/injection, schedule: Q01DX009 (ip), vehicle: saline with Tween-80 92 % of control | endpoint: mean survival time, dose: 37.5 mg/kg/injection, schedule: Q01DX009 (ip), vehicle: saline with Tween-80 93 % of control | endpoint: mean survival time, dose: 37.5 mg/kg/injection, schedule: Q04DX003 (ip), vehicle: acetone 95 % of control | endpoint: mean survival time, dose: 75.0 mg/kg/injection, schedule: Q01DX009 (ip), vehicle: saline with Tween-80 97 % of control | endpoint: mean survival time, dose: 75.0 mg/kg/injection, schedule: Q04DX003 (ip), vehicle: acetone 95 % of control

CCOC(=O)c1cn[nH]c1/N=C/N(C)C
inactive: [1] 98 % of control | [2] 104 % of control | [3] 106 % of control

COc1ccc(NC(=O)Nc2ccc(OC)cc2Cl)cc1
inactive: endpoint: mean survival time, dose: 100.0 mg/kg/injection, schedule: Q04DX002 (ip), vehicle: saline with Tween-80 90 % of control | endpoint: mean survival time, dose: 200.0 mg/kg/injection, schedule: Q04DX002 (ip), vehicle: saline with Tween-80 86 % of control | endpoint: mean survival time, dose: 400.0 mg/kg/injection, schedule: Q04DX002 (ip), vehicle: saline with Tween-80 90 % of control

O=C(NC(COCc1ccccc1)C(=O)O)OCc1ccccc1 (stereo not given)
inactive: [8] 88 % of control | [9] 92 % of control | [10] 100 % of control

NC(C1SCCS1)C(O)C(O)C(O)CO (stereo not given)
inactive: [8] 101 % of control | [9] 104 % of control | [10] 98 % of control

CCN(CCS)Cc1ccccc1
inactive: [8] 98 % of control

COc1ccccc1N=Nc1c(O)n(-c2ccccc2OC)c(=S)n(-c2ccc(Cl)cc2)c1=O
inactive: [1] 90 % of control | [2] 93 % of control

CC(=O)C(C(c1ccccc1)N1CCCc2ccccc21)N1CCOCC1 (stereo not given)
inactive: endpoint: mean survival time, dose: 100.0 mg/kg/injection, schedule: Q04DX003 (ip), vehicle: Klucel (hydroxypropylcellulose) (HPC) 98 % of control | endpoint: mean survival time, dose: 200.0 mg/kg/injection, schedule: Q04DX003 (ip), vehicle: Klucel (hydroxypropylcellulose) (HPC) 101 % of control | endpoint: mean survival time, dose: 400.0 mg/kg/injection, schedule: Q04DX003 (ip), vehicle: Klucel (hydroxypropylcellulose) (HPC) 108 % of control

O=C(O)c1cccc(Cl)n1
inactive: [5] 97 % of control | [6] 97 % of control | [7] 88 % of control

CC1(C)C/C(=C\c2cc(O)ccc2[N+](=O)[O-])C(=O)c2ccccc21
inactive: [5] 97 % of control | [8] 101 % of control | [6] 94 % of control | [9] 106 % of control | [7] 97 % of control | [10] 103 % of control

O=C(c1ccccc1Br)C(Br)C(Br)c1ccccc1 (stereo not given)
inactive: [8] 103 % of control | [9] 111 % of control | [10] 100 % of control

CC(C)C(NC(=O)CNC(=O)CCl)C(=O)O (stereo not given) (ClAc-Gly-[ξV]-OH)
inactive: endpoint: mean survival time, dose: 25.0 mg/kg/injection, schedule: Q01DX009 (ip), vehicle: saline with Tween-80 92 % of control | endpoint: mean survival time, dose: 25.0 mg/kg/injection, schedule: Q04DX003 (ip), vehicle: saline with Tween-80 96 % of control | [4] 97 % of control | endpoint: mean survival time, dose: 50.0 mg/kg/injection, schedule: Q04DX003 (ip), vehicle: saline with Tween-80 100 % of control | [5] 97 % of control | [8] 100 % of control

Cc1cc(C)nc(N)n1
inactive: [8] 95 % of control | [9] 98 % of control | [10] 98 % of control

CC(=O)C(C(C)=O)C(c1cccnc1)C(C(C)=O)C(C)=O
inactive: [1] 104 % of control | [2] 107 % of control | [3] 98 % of control

CC1CC(C)(C)[N+](C)=C(CCc2ccccc2)O1 (stereo not given)
inactive: [1] 93 % of control
